Assay results: paper PMC12310481, “Sequence, characterization and pharmacological analyses of the adipokinetic hormone receptor in the stick insect, Carausius morosus” (Frontiers in Endocrinology, 2025)
“And” between values parts separate entries of the source, which are not always exact repeats. Equal values may be shown once. Read-outs that look alike come from different tables or passages of the source. Starred links: 1 amine or outer side, 2 acyl side, 3 side chain; linkers in the order of their positions; H or OH if unused. Non-standard residues stand in square brackets, D forms with d. Residues, ends and D or L forms follow the SMILES beside them. X1 = O=C([C@H](Cc1c([C@H]2O[C@H](CO)[C@@H](O)[C@H](O)[C@@H]2O)[nH]c2ccccc12)N[*:1])[*:2]; pGlu = O=C1CC[C@@H](C(=O)O)N1

Tested on: Carausius morosus AKH receptor (Carmo-AKHR)
Assay: Calcium bioluminescence (aequorin) reporter assay, CHO-K1 cells stably expressing Carmo-AKHR
Assay type: cell-based
Conditions: for Fold-reduction in activity (receptor activation relative to Carmo-HrTH-II): ratio of EC50 relative to Carmo-HrTH-II; for Receptor activation (in words): dose-response or clonal line testing, luminescence
Protocol: Functional activation of Carmo-AKHR was carried out by following mammalian cell culture procedures as previously described ([20], [29]) with the following modifications. […] At 24 h post-transfection, cells were selected in DMEM:F12 media containing 10% heat-inactivated fetal bovine serum (Wisent, St. Bruno, QC), 1x antimycotic-antibiotic and 600 μg/mL geneticin (G418) until clonal recombinant cells were evident in transfected cells while no live cells were present in non-transfected CHO-K1 cells (control). Individual clonal recombinant colonies were seeded into separate wells of a 96 well cell-culture dish (Sarstedt Inc., Montreal, QC) and grown to confluence while maintaining geneticin selection. To identify clonal recombinant lines with optimal Carmo-AKHR activity yielding the greatest signal-to-noise ratio, individual clonal recombinant lines were assayed in the bioluminescence reporter assay as described previously ([30]). […] The recombinant cell line showing the optimal luminescent response with greatest signal-to-noise ratio was expanded for preparation of cryo-stocks and subsequent detailed investigation of receptor specificity. […] Bruno, QC), 250 μg/mL Geneticin (MilliporeSigma Canada Ltd., Oakville, ON) and 1X antimycotic-antibiotic (ThermoFisher Scientific, Whitby, ON). […] Transfection was completed with PolyJetTM DNA In Vitro Transfection Reagent (FroggaBio, Toronto, ON) following manufacturer recommendations for transfection of adherent cells. At 48 hours post-transfection, cells were detached from culture flasks using Dulbecco's PBS (Wisent, St. Bruno, QC) containing 5 mM Ethylenediaminetetraacetic acid (EDTA) and were prepared for the functional assay as previously described ([30]). […] Immediately after injection of the cells into each well, luminescence was measured for 20 s using a Synergy 2 Multi-Mode Microplate Reader (BioTek, Winooski, VT, USA). […] Data were analyzed using a one-way or two-way ANOVA and Tukey's multiple comparisons post-hoc test, with differences between treatments considered significant if p<0.05.

[1] = CHO-K1 stably expressing Carmo-AKHR, transiently aequorin, luminescence measured 20 s, from dose-response activation curves, 3 to 4 independent biological replicates, normalized to ATP maximum, read-out: EC50 value
[2] = minimal activity up to the highest concentration tested, read-out: EC50 value (M), not determinable: minimal activity

Compound	Fold-reduction in activity (receptor activation relative to Carmo-HrTH-II)	EC50 [1] [M]	EC50 [2] [M]	Receptor activation (in words)
[pGlu]LTATPNWGT-NH2 [Ala^4-analog, alanine-substituted analog of Carmo-HrTH-II, position 4]	>1360 fold			
CC(C)C[C@H](NC(=O)[C@@H]1CCC(=O)N1)C(=O)N[C@H](C(=O)N[C@@H](Cc1ccccc1)C(=O)N[C@H](C(=O)N1CCC[C@H]1C(=O)N[C@@H](CC(N)=O)C(=O)N[C@@H](Cc1c[nH]c2ccccc12)C(=O)N[C@@H](C)C(=O)N[C@H](C(N)=O)[C@@H](C)O)[C@@H](C)O)[C@@H](C)O [Ala^9-analog] ([pGlu]LTFTPNWAT-NH2)	20.18 fold	1.48e-06		
[pGlu]LAFTPNWGT-NH2 [Ala^3-analog, alanine-substituted analog of Carmo-HrTH-II, position 3]	1045.82 fold			
CC(C)C[C@H](NC(=O)[C@@H]1CCC(=O)N1)C(=O)N[C@H](C(=O)N[C@@H](Cc1ccccc1)C(=O)N[C@H](C(=O)N1CCC[C@H]1C(=O)N[C@@H](CC(N)=O)C(=O)N[C@@H](C)C(=O)NCC(=O)N[C@H](C(N)=O)[C@@H](C)O)[C@@H](C)O)[C@@H](C)O [Ala^8-analog] ([pGlu]LTFTPNAGT-NH2)	>1360 fold		> 0.0001	
CC(C)C[C@H](NC(=O)[C@@H]1CCC(=O)N1)C(=O)N[C@H](C(=O)N[C@@H](Cc1ccccc1)C(=O)N[C@H](C(=O)N1CCC[C@H]1C(=O)N[C@@H](CC(N)=O)C(=O)N[C@@H](Cc1c[nH]c2ccccc12)C(=O)NCC(N)=O)[C@@H](C)O)[C@@H](C)O [Triin-AKH] ([pGlu]LTFTPNWG-NH2)	7.45 fold	5.48e-07		
CC(C)[C@H](NC(=O)[C@@H]1CCC(=O)N1)C(=O)N[C@@H](CC(N)=O)C(=O)N[C@@H](Cc1ccccc1)C(=O)N[C@@H](CO)C(=O)N1CCC[C@H]1C(=O)N[C@@H](CC(N)=O)C(=O)N[C@@H](Cc1c[nH]c2ccccc12)C(N)=O [Peram-CAH-I] ([pGlu]VNFSPNW-NH2)	>1360 fold		> 0.0001	complete loss of efficacy
CC(C)C[C@H](NC(=O)[C@@H]1CCC(=O)N1)C(=O)N[C@H](C(=O)N[C@@H](Cc1ccccc1)C(=O)N[C@H](C(=O)N1CCC[C@H]1C(=O)N[C@@H](C)C(=O)N[C@@H](Cc1c[nH]c2ccccc12)C(=O)NCC(=O)N[C@H](C(N)=O)[C@@H](C)O)[C@@H](C)O)[C@@H](C)O [Ala^7-analog] ([pGlu]LTFTPAWGT-NH2)	4.21 fold	3.1e-07		
CC(C)C[C@H](NC(=O)[C@@H]1CCC(=O)N1)C(=O)N[C@H](C(=O)N[C@@H](Cc1ccccc1)C(=O)N[C@@H](C)C(=O)N1CCC[C@H]1C(=O)N[C@@H](CC(N)=O)C(=O)N[C@@H](Cc1c[nH]c2ccccc12)C(=O)NCC(=O)N[C@H](C(N)=O)[C@@H](C)O)[C@@H](C)O [Ala^5-analog] ([pGlu]LTFAPNWGT-NH2)	1166.83 fold	8.58e-05		
CC(=O)N[C@@H](C)C(=O)N[C@@H](CC(C)C)C(=O)N[C@H](C(=O)N[C@@H](Cc1ccccc1)C(=O)N[C@H](C(=O)N1CCC[C@H]1C(=O)N[C@@H](CC(N)=O)C(=O)N[C@@H](Cc1c[nH]c2ccccc12)C(=O)NCC(=O)N[C@H](C(N)=O)[C@@H](C)O)[C@@H](C)O)[C@@H](C)O [[N-Ac. Ala]^1-analog] (Ac-ALTFTPNWGT-NH2)	>1360 fold		> 0.0001	
CC(C)C[C@H](N)C(=O)N[C@H](C(=O)N[C@@H](Cc1ccccc1)C(=O)N[C@H](C(=O)N1CCC[C@H]1C(=O)N[C@@H](CC(N)=O)C(=O)N[C@@H](Cc1c[nH]c2ccccc12)C(=O)NCC(=O)N[C@H](C(N)=O)[C@@H](C)O)[C@@H](C)O)[C@@H](C)O [Carmo-HrTH-II minus pGlu] (H-LTFTPNWGT-NH2)	>1360 fold		> 0.0001	
CC(C)C[C@H](NC(=O)[C@@H]1CCC(=O)N1)C(=O)N[C@@H](CC(N)=O)C(=O)N[C@@H](Cc1ccccc1)C(=O)N[C@@H](CO)C(=O)N1CCC[C@H]1C(=O)NCC(=O)N[C@@H](Cc1c[nH]c2ccccc12)C(N)=O [Panbo-RPCH] ([pGlu]LNFSPGW-NH2)	455 fold and 455.74 fold	3.35e-05		
CC(C)C[C@H](NC(=O)[C@@H]1CCC(=O)N1)C(=O)N[C@H](C(=O)N[C@@H](Cc1ccccc1)C(=O)N[C@H](C(=O)N1CCC[C@H]1C(=O)N[C@@H](CC(N)=O)C(=O)N[C@@H](Cc1c[nH]c2ccccc12)C(=O)NCC(=O)N[C@@H](C)C(N)=O)[C@@H](C)O)[C@@H](C)O [Ala^10-analog] ([pGlu]LTFTPNWGA-NH2)	0.15 fold	1.1e-08		
CC[C@H](C)[C@H](NC(=O)[C@@H]1CCC(=O)N1)C(=O)N[C@H](C(=O)N[C@@H](Cc1ccccc1)C(=O)N[C@H](C(=O)N1CCC[C@H]1C(=O)N[C@@H](CC(N)=O)C(=O)N[C@@H](Cc1c[nH]c2ccccc12)C(N)=O)[C@@H](C)O)[C@@H](C)O [Polae-HrTH] ([pGlu]ITFTPNW-NH2)	120 fold and 119.12 fold	8.76e-06		
CC(C)C[C@H](NC(=O)[C@@H]1CCC(=O)N1)C(=O)N[C@H](C(=O)N[C@@H](Cc1ccccc1)C(=O)N[C@H](C(=O)N1CCC[C@H]1C(=O)N[C@@H](CC(N)=O)C(=O)N[C@@H](Cc1c([C@H]2O[C@H](CO)[C@@H](O)[C@H](O)[C@@H]2O)[nH]c2ccccc12)C(=O)NCC(=O)N[C@H](C(N)=O)[C@@H](C)O)[C@@H](C)O)[C@@H](C)O [Carmo-HrTH-I] ([pGlu]LTFTPN[X1]GT-NH2)	1.22 fold	8.97e-08		
C[C@H](NC(=O)[C@@H]1CCC(=O)N1)C(=O)N[C@H](C(=O)N[C@@H](Cc1ccccc1)C(=O)N[C@H](C(=O)N1CCC[C@H]1C(=O)N[C@@H](CC(N)=O)C(=O)N[C@@H](Cc1c[nH]c2ccccc12)C(=O)NCC(=O)N[C@H](C(N)=O)[C@@H](C)O)[C@@H](C)O)[C@@H](C)O [Ala^2-analog] ([pGlu]ATFTPNWGT-NH2)	9.42 fold	6.93e-07		
CC(C)C[C@H](NC(=O)[C@@H]1CCC(=O)N1)C(=O)N[C@H](C(=O)N[C@@H](Cc1ccccc1)C(=O)N[C@H](C(=O)N1CCC[C@H]1C(=O)N[C@@H](CC(N)=O)C(=O)N[C@@H](Cc1c[nH]c2ccccc12)C(=O)NCC(=O)N[C@H](C(N)=O)[C@@H](C)O)[C@@H](C)O)[C@@H](C)O [Carmo-HrTH-II] ([pGlu]LTFTPNWGT-NH2)		7.36e-08		
[pGlu]VTFSRDWNA-NH2 [Aedae-ACP, AKH/corazonin-related peptide of Aedes aegypti]				failed to activate the receptor at all tested doses
pETFQYSRGWTN amide [Aedae-Crz, corazonin of the mosquito Aedes aegypti]				failed to activate the receptor at all tested doses
CC(C)C[C@H](NC(=O)[C@@H]1CCC(=O)N1)C(=O)N[C@H](C(=O)N[C@@H](Cc1ccccc1)C(=O)N[C@H](C(=O)N[C@@H](C)C(=O)N[C@@H](CC(N)=O)C(=O)N[C@@H](Cc1c[nH]c2ccccc12)C(=O)NCC(=O)N[C@H](C(N)=O)[C@@H](C)O)[C@@H](C)O)[C@@H](C)O [Ala^6-analog] ([pGlu]LTFTANWGT-NH2)	5.49 fold	4.04e-07		
CC(C)C[C@H](NC(=O)[C@@H]1CCC(=O)N1)C(=O)N[C@H](C(=O)N[C@@H](Cc1ccccc1)C(=O)N[C@H](C(=O)N1CCC[C@H]1C(=O)N[C@@H](CC(N)=O)C(=O)N[C@@H](Cc1c[nH]c2ccccc12)C(=O)NCC(=O)N[C@H](C(=O)O)[C@@H](C)O)[C@@H](C)O)[C@@H](C)O [Carmo-HrTH-II free acid] ([pGlu]LTFTPNWGT-OH)	>1360 fold		> 0.0001	
